In PubChem BioAssay AID328 (DTP/NCI, 2004):
Values joined by “and” are separate entries in the source; they are usually repeats but may differ in a detail not shown here. Equal values may be shown once. Toxic doses and inconclusive results are not listed. The calls were made as follows: active = survival T/C of 150% or more; inactive = T/C below 125% in these data. Non-standard residues stand in square brackets, D forms with d. Residues, ends and D or L forms follow the SMILES beside them. ξ: configuration not given here. ξLac(3-iPr) = CC(C)CC(O)C(=O)O; NMeV = CN[CH](C(=O)O)C(C)C; NMeA = CN[CH](C)C(=O)O; βAla = NCCC(=O)O

Test system: BDF1 mice, P388 leukemia ip, median survival T/C
Experiment: NCI In Vivo Anticancer Drug Screen. Data for tumor model P388 Leukemia (intraperitoneal) in B6D2F1 (BDF1) mice
Conditions: endpoint: median survival time, higher = longer survival
In short: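 Transplantable tumour in mice; compound vs vehicle dosing; survival scored; ratio of treated to control reported.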

[1] = dose: 25.0 mg/kg/injection, schedule: Q01DX009 (ip), vehicle: saline with Tween-80
[2] = dose: 50.0 mg/kg/injection, schedule: Q01DX009 (ip), vehicle: saline with Tween-80
[3] = dose: 100.0 mg/kg/injection, schedule: Q01DX009 (ip), vehicle: Klucel (hydroxypropylcellulose) (HPC)
[4] = dose: 100.0 mg/kg/injection, schedule: Q04DX003 (ip), vehicle: Klucel (hydroxypropylcellulose) (HPC)
[5] = dose: 200.0 mg/kg/injection, schedule: Q01DX009 (ip), vehicle: Klucel (hydroxypropylcellulose) (HPC)
[6] = dose: 200.0 mg/kg/injection, schedule: Q04DX003 (ip), vehicle: Klucel (hydroxypropylcellulose) (HPC)
[7] = dose: 400.0 mg/kg/injection, schedule: Q01DX009 (ip), vehicle: Klucel (hydroxypropylcellulose) (HPC)

Measured: T/C

COC1C(=O)CCC2(CO2)C1(O)C1(C)OC1CCC(C)C (stereo not given)
inactive: dose: 22.0 mg/kg/injection, schedule: Q01DX009 (ip), vehicle: saline with Tween-80 109 % of control | dose: 44.0 mg/kg/injection, schedule: Q01DX009 (ip), vehicle: saline with Tween-80 109 % of control | dose: 87.5 mg/kg/injection, schedule: Q01DX009 (ip), vehicle: saline with Tween-80 110 % of control and 118 % of control

O=C1NC(=O)C2(CCc3ccccc3C2)N1 (stereo not given)
inactive: [1] 97 % of control | [2] 99 % of control and 107 % of control | dose: 100.0 mg/kg/injection, schedule: Q01DX009 (ip), vehicle: saline with Tween-80 96 % of control and 104 % of control | dose: 200.0 mg/kg/injection, schedule: Q01DX009 (ip), vehicle: saline with Tween-80 96 % of control and 97 % of control | dose: 400.0 mg/kg/injection, schedule: Q01DX009 (ip), vehicle: saline with Tween-80 92 % of control

Nc1ccc(C(=O)O)cn1
inactive: dose: 20.0 mg/kg/injection, schedule: Q01DX009 (ip), vehicle: saline 105 % of control | dose: 40.0 mg/kg/injection, schedule: Q01DX009 (ip), vehicle: saline 98 % of control | dose: 80.0 mg/kg/injection, schedule: Q01DX009 (ip), vehicle: saline 110 % of control

Cc1c(Cl)cc(Cl)c(N)c1Cl
inactive: dose: 200.0 mg/kg/injection, schedule: Q04DX003 (ip), vehicle: saline with Tween-80 100 % of control | dose: 400.0 mg/kg/injection, schedule: Q04DX003 (ip), vehicle: saline with Tween-80 100 % of control

O=C(Nc1cc(Cl)ccc1Cl)c1ccccc1Cl
inactive: [3] 100 % of control | [4] 104 % of control | [5] 113 % of control | [6] 104 % of control | dose: 400.0 mg/kg/injection, schedule: Q04DX003 (ip), vehicle: Klucel (hydroxypropylcellulose) (HPC) 100 % of control

C=C(C(=O)OC1C/C(C)=C/C(O)C/C(C)=C/C2OC(=O)C(=C)C21)C(C)O (stereo not given)
inactive: dose: 100.0 mg/kg/injection, schedule: Q04DX002 (ip), vehicle: Klucel (hydroxypropylcellulose) (HPC) 120 % of control

ON=C(c1ccccn1)c1ccccn1
inactive: dose: 100.0 mg/kg/injection, schedule: Q04DX003 (ip), vehicle: gum acacia 100 % of control | dose: 200.0 mg/kg/injection, schedule: Q04DX003 (ip), vehicle: gum acacia 104 % of control | dose: 400.0 mg/kg/injection, schedule: Q04DX003 (ip), vehicle: gum acacia 104 % of control

COc1ccc(Cc2c3cc(OC)c(OC)cc3cc[n+]2C)cc1OC
inactive: [1] 90 % of control | [2] 100 % of control | dose: 100.0 mg/kg/injection, schedule: Q04DX003 (ip), vehicle: saline with Tween-80 108 % of control

Cc1ccc(S(=O)(=O)OC2CCC(C(C)(C)C)CC2Cl)cc1 (stereo not given)
inactive: [3] 105 % of control | [4] 100 % of control | [5] 110 % of control | [6] 86 % of control | [7] 95 % of control

CCn1cnc2c(C(F)(F)F)nc(N)nc21
inactive: dose: 12.5 mg/kg/injection, schedule: Q01DX009 (ip), vehicle: Klucel (hydroxypropylcellulose) (HPC) 100 % of control | dose: 25.0 mg/kg/injection, schedule: Q01DX009 (ip), vehicle: Klucel (hydroxypropylcellulose) (HPC) 110 % of control | dose: 50.0 mg/kg/injection, schedule: Q01DX009 (ip), vehicle: Klucel (hydroxypropylcellulose) (HPC) 110 % of control

CCC(C)C1NC(=O)C2CCCN2C(=O)C(CC(C)C)OC(=O)CCNC(=O)C(C)N(C)C(=O)C(C(C)C)N(C)C1=O (stereo not given) (cyclo([ξLac(3-iPr)]PI[NMeV][NMeA][βAla]); configuration not given here)
inactive: dose: 0.82 mg/kg/injection, schedule: Q01DX009 (ip), vehicle: saline 115 % of control | dose: 1.25 mg/kg/injection, schedule: Q01DX009 (ip), vehicle: saline 91 % of control | dose: 1.8 mg/kg/injection, schedule: Q01DX009 (ip), vehicle: saline 107 % of control | dose: 2.5 mg/kg/injection, schedule: Q01DX009 (ip), vehicle: saline 96 % of control | dose: 5.0 mg/kg/injection, schedule: Q01DX009 (ip), vehicle: saline 108 % of control | dose: 10.0 mg/kg/injection, schedule: Q01DX009 (ip), vehicle: saline 104 % of control

CC1CN1P(=O)(Oc1ccccc1)N1CC1C (stereo not given)
inactive: dose: 65.0 mg/kg/injection, schedule: Q01DX009 (ip), vehicle: saline 104 % of control

NC(=O)N/N=C/c1ccccc1N
inactive: [3] 90 % of control | [5] 100 % of control | [7] 100 % of control

CN1CCC(S)(S)CC1
inactive: dose: 12.5 mg/kg/injection, schedule: Q04DX003 (ip), vehicle: saline with Tween-80 100 % of control | dose: 25.0 mg/kg/injection, schedule: Q04DX003 (ip), vehicle: saline with Tween-80 100 % of control | dose: 50.0 mg/kg/injection, schedule: Q04DX003 (ip), vehicle: saline with Tween-80 109 % of control

C[N+](C)(C)c1ncnc2c1ncn2C1CCCO1 (stereo not given)
inactive: dose: 50.0 mg/kg/injection, schedule: Q01DX009 (ip), vehicle: saline 100 % of control | dose: 100.0 mg/kg/injection, schedule: Q01DX009 (ip), vehicle: saline 109 % of control | dose: 100.0 mg/kg/injection, schedule: Q04DX003 (ip), vehicle: saline 100 % of control | dose: 200.0 mg/kg/injection, schedule: Q04DX003 (ip), vehicle: saline 100 % of control
